# Test results from US11407749B2, “Heterocyclic compounds as immunomodulators” (Incyte Corporation, priority 2015, dated 2022).
# Target: PD-1/PD-L1 protein/protein interaction (Homo sapiens (Human), UniProt Q9NZQ7)
# Experiment: PD-1/PD-L1 Homogeneous Time-Resolved Fluorescence (HTRF) Binding Assay
# Conditions: recombinant human PD-L1 (19-238)-His and PD-1 (25-167)-Fc, 25° C., PBS pH 7.4
# Protocol: Example A. PD-1/PD-L1 Homogeneous Time-Resolved Fluorescence (HTRF) Binding Assay
# The assays were conducted in a standard black 384-well polystyrene plate with a final volume of 20 μL. Inhibitors were first serially diluted in DMSO and then added to the plate wells before the addition of other reaction components. The final concentration of DMSO in the assay was 1%. The assays were carried out at 25° C. in the PBS buffer (pH 7.4) with 0.05% Tween-20 and 0.1% BSA. Recombinant human PD-L1 protein (19-238) with a His-tag at the C-terminus was purchased from AcroBiosystems (PD1-H5229). Recombinant human PD-1 protein (25-167) with Fc tag at the C-terminus was also purchased from AcroBiosystems (PD1-H5257). PD-L1 and PD-1 proteins were diluted in the assay buffer and 10 μL was added to the plate well. Plates were centrifuged and proteins were preincubated with inhibitors for 40 minutes. The incubation was followed by the addition of 10 μL of HTRF detection buffer supplemented with Europium cryptate-labeled anti-human IgG (PerkinElmer-AD0212) specific for Fc and anti-His antibody conjugated to SureLight®-Allophycocyanin (APC, PerkinElmer-AD0059H). After centrifugation, the plate was incubated at 25° C. for 60 min. before reading on a PHERAstar FS plate reader (665 nm/620 nm ratio). Final concentrations in the assay were […], 10 nM PD-L1, 1 nM europium anti-human IgG and 20 nM anti-His-Allophycocyanin. IC50 determination was performed by fitting the curve of percent control activity versus the log of the inhibitor concentration using the GraphPad Prism 5.0 software.
# PD-1/PD-L1 protein/protein interaction, sequence (Q9NZQ7 19-238): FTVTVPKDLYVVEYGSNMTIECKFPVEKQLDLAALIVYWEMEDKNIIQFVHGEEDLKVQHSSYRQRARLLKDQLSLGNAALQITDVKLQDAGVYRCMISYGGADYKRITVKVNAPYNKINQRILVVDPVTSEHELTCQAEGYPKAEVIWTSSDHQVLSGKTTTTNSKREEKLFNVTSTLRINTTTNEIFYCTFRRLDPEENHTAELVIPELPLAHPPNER
row,Structure (SMILES),IC50
1,"Cc1c(-c2ccccc2)cccc1-c1nc2cc(CN3CCCC[C@H]3C(=O)O)ccn2n1 [Example 17, (2S)-1-{[2-(2-methylbiphenyl-3-yl)[1,2,4]triazolo[1,5-a]pyridin-7-yl]methyl}piperidine-2-carboxylic acid]",100 to 500 nM
2,"Cc1c(-c2ccccc2)cccc1-c1cn2cc(CN3CCCC[C@H]3C(=O)O)cc(C)c2n1 [Example 10, (S)-1-((8-methyl-2-(2-methylbiphenyl-3-yl)imidazo[1,2-a]pyridin-6-yl)methyl)piperidine-2-carboxylic acid]",100 to 500 nM
3,"Cc1c(-c2ccccc2)cccc1-c1cc2cc(CN3CCCC[C@H]3C(=O)O)ccn2c1 [Example 3, (2S)-1-{[2-(2-methylbiphenyl-3-yl)indolizin-7-yl]methyl}piperidine-2-carboxylic acid]",100 to 500 nM
4,"Cc1c(-c2ccccc2)cccc1-c1cn2nc(CNCC(N)=O)cnc2n1 [Example 7, 2-((6-(2-methylbiphenyl-3-yl)imidazo[1,2-b][1,2,4]triazin-2-yl)methylamino)acetamide]",100 to 500 nM
5,"Cc1c(-c2ccccc2)cccc1-c1cc2cc(CN3CCCC[C@H]3C(=O)O)ncn2c1 [Example 4, (2S)-1-{[6-(2-methylbiphenyl-3-yl)pyrrolo[1,2-c]pyrimidin-3-yl]methyl}piperidine-2-carboxylic acid]",500 to 10000 nM
6,"Cc1c(-c2ccccc2)cccc1-c1cn2nc(CNCC#N)cnc2n1 [Example 6, 2-((6-(2-methylbiphenyl-3-yl)imidazo[1,2-b][1,2,4]triazin-2-yl)methylamino)acetonitrile]",100 to 500 nM
7,"Cc1c(-c2ccccc2)cccc1-c1cn2nc(CN(C)CCO)cnc2n1 [Example 8, 2-(methyl((6-(2-methylbiphenyl-3-yl)imidazo[1,2-b][1,2,4]triazin-2-yl)methyl)amino)ethanol]",100 to 500 nM
8,"Cc1c(-c2ccccc2)cccc1-c1cn2cc(CNCCO)ncc2n1 [Example 13, 2-({[2-(2-methylbiphenyl-3-yl)imidazo[1,2-a]pyrazin-6-yl]methyl}amino)ethanol]",≤ 100 nM
9,"Cc1c(-c2ccccc2)cccc1-c1cn2nc(CN3CCCC[C@H]3C(=O)O)ccc2n1 [Example 14, (S)-1-((2-(2-methylbiphenyl-3-yl)imidazo[1,2-b]pyridazin-6-yl)methyl)piperidine-2-carboxylic acid]",500 to 10000 nM
10,"Cc1c(-c2ccccc2)cccc1-c1cc2cc(CNCCO)ccn2c1 [Example 2, 2-({[2-(2-methylbiphenyl-3-yl)indolizin-7-yl]methyl}amino)ethanol]",100 to 500 nM
11,"Cc1c(-c2ccccc2)cccc1-c1nc2ccc(CN3CCCC[C@H]3C(=O)O)cn2n1 [Example 19, (2S)-1-{[2-(2-methylbiphenyl-3-yl)[1,2,4]triazolo[1,5-a]pyridin-6-yl]methyl}piperidine-2-carboxylic acid]",100 to 500 nM

# More lines, now with the values ahead:
row,IC50,Structure (SMILES)
1,100 to 500 nM,"COCCNc1cc(CNCCO)cn2nc(-c3cccc(-c4ccccc4)c3C)nc12 [Example 22, 2-({[8-[(2-methoxyethyl)amino]-2-(2-methylbiphenyl-3-yl)[1,2,4]triazolo[1,5-a]pyridin-6-yl]methyl}amino)ethanol]"
2,≤ 100 nM,"Cc1c(-c2ccccc2)cccc1-c1nc2cc(CNCCO)ccn2n1 [Example 16, 2-({[2-(2-methylbiphenyl-3-yl)[1,2,4]triazolo[1,5-a]pyridin-7-yl]methyl}amino)ethanol]"
3,≤ 100 nM,"Cc1c(-c2ccccc2)cccc1-c1nc2ccc(CNCCO)cn2n1 [Example 18, 2-({[2-(2-methylbiphenyl-3-yl)[1,2,4]triazolo[1,5-a]pyridin-6-yl]methyl}amino)ethanol]"
4,≤ 100 nM,"N#Cc1c(-c2ccc3c(c2)OCCO3)cccc1-c1nc2c(C#N)cc(CNCCO)cn2n1 [Example 26, 2-[2-cyano-3-(2,3-dihydro-1,4-benzodioxin-6-yl)phenyl]-6-{[(2-hydroxyethyl)amino]methyl}[1,2,4]triazolo[1,5-a]pyridine-8-carbonitrile]"
5,≤ 100 nM,"Cc1c(-c2ccccc2)cccc1-c1nc2c(CCCC#N)cc(CNCCO)cn2n1 [Example 23, 4-[6-{[(2-hydroxyethyl)amino]methyl}-2-(2-methylbiphenyl-3-yl)[1,2,4]triazolo[1,5-a]pyridin-8-yl]butanenitrile]"
6,100 to 500 nM,"Cc1c(-c2ccccc2)cccc1-c1cn2cc(CNCCO)cnc2n1 [Example 12, 2-({[2-(2-methylbiphenyl-3-yl)imidazo[1,2-a]pyrimidin-6-yl]methyl}amino)ethanol]"
7,100 to 500 nM,"Cc1c(-c2ccccc2)cccc1-c1cn2cc(CNCCO)cc(C)c2n1 [Example 9, 2-((8-methyl-2-(2-methylbiphenyl-3-yl)imidazo[1,2-a]pyridin-6-yl)methylamino)ethanol]"
8,100 to 500 nM,"Cc1c(-c2ccccc2)cccc1-c1cn2cc(CNCCO)ccc2n1 [Example 1, 2-({[2-(2-methylbiphenyl-3-yl)imidazo[1,2-a]pyridin-6-yl]methyl}amino)ethanol]"
9,≤ 100 nM,"Cc1c(-c2ccccc2)cccc1-c1cn2nc(CNCCO)cnc2n1 [Example 5, 2-((6-(2-methylbiphenyl-3-yl)imidazo[1,2-b][1,2,4]triazin-2-yl)methylamino)ethanol]"
10,≤ 100 nM,"N#Cc1c(-c2ccc3c(c2)OCCO3)cccc1-c1nc2c(Cl)cc(CNCCO)cn2n1 [Example 25, 2-(8-chloro-6-{[(2-hydroxyethyl)amino]methyl}[1,2,4]triazolo[1,5-a]pyridin-2-yl)-6-(2,3-dihydro-1,4-benzodioxin-6-yl)benzonitrile]"
11,100 to 500 nM,"Cc1c(-c2ccccc2)cccc1-c1cn2cc(CNCCO)cc(Cl)c2n1 [Example 11, 2-((8-chloro-2-(2-methylbiphenyl-3-yl)imidazo[1,2-a]pyridin-6-yl)methylamino)ethanol]"
12,≤ 100 nM,"N#CCc1cc(CNCCO)cn2nc(-c3cccc(-c4ccc5c(c4)OCCO5)c3C#N)nc12 [Example 27, 2-(8-(cyanomethyl)-6-{[(2-hydroxyethyl)amino]methyl}[1,2,4]triazolo[1,5-a]pyridin-2-yl)-6-(2,3-dihydro-1,4-benzodioxin-6-yl)benzonitrile]"
13,≤ 100 nM,"Cc1c(-c2ccccc2)cccc1-c1nc2cc(CNCCO)nc(C)n2n1 [Example 20, 2-({[5-methyl-2-(2-methylbiphenyl-3-yl)[1,2,4]triazolo[1,5-c]pyrimidin-7-yl]methyl}amino)ethanol]"
14,≤ 100 nM,"Cc1c(-c2ccccc2)cccc1-c1nc2c(CC#N)cc(CNCCO)cn2n1 [Example 24, [6-{[(2-hydroxyethyl)amino]methyl}-2-(2-methylbiphenyl-3-yl)[1,2,4]triazolo[1,5-a]pyridin-8-yl]acetonitrile]"
15,100 to 500 nM,"Cc1c(-c2ccccc2)cccc1-c1cn2nc(CNCCO)ccc2n1 [Example 15, 2-({[2-(2-methylbiphenyl-3-yl)imidazo[1,2-b]pyridazin-6-yl]methyl}amino)ethanol]"
16,≤ 100 nM,"Cc1c(-c2ccccc2)cccc1-c1nc2c(Cl)cc(CNCCO)cn2n1 [Example 21, 2-({[8-chloro-2-(2-methylbiphenyl-3-yl)-[1,2,4]triazolo[1,5-a]pyridin-6-yl]methyl}amino)ethanol]"
